The source made the active and inactive calls. The rule behind the calls is not given here.
Assays:
K562 = test: Growth inhibition of human K562 cells incubated for 48 hrs by sulforhodamine B spectrophotometric assay; assay type: functional
RPMI-8226 = test: Growth inhibition of human RPMI-8226 cells incubated for 48 hrs by sulforhodamine B spectrophotometric assay; assay type: functional
NCI-H226 [1] = test: Growth inhibition of human NCI-H226 cells incubated for 48 hrs by sulforhodamine B spectrophotometric assay; assay type: functional
HCC 2998 = test: Growth inhibition of human HCC 2998 cells incubated for 48 hrs by sulforhodamine B spectrophotometric assay; assay type: functional
SF-268 = test: Growth inhibition of human SF-268 cells incubated for 48 hrs by sulforhodamine B spectrophotometric assay; assay type: functional
SF-295 [2] = test: Growth inhibition of human SF-295 cells incubated for 48 hrs by sulforhodamine B spectrophotometric assay; assay type: functional
Malme-3M [3] = test: Growth inhibition of human Malme-3M cells incubated for 48 hrs by sulforhodamine B spectrophotometric assay; assay type: functional
M14 = test: Growth inhibition of human M14 cells incubated for 48 hrs by sulforhodamine B spectrophotometric assay; assay type: functional
SK-MEL-28 = test: Growth inhibition of human SK-MEL-28 cells incubated for 48 hrs by sulforhodamine B spectrophotometric assay; assay type: functional
OVCAR-3 [4] = test: Growth inhibition of human OVCAR-3 cells incubated for 48 hrs by sulforhodamine B spectrophotometric assay; assay type: functional
ACHN [5] = test: Growth inhibition of human ACHN cells incubated for 48 hrs by sulforhodamine B spectrophotometric assay; assay type: functional
SN12C = test: Growth inhibition of human SN12C cells incubated for 48 hrs by sulforhodamine B spectrophotometric assay; assay type: functional
MCF7 = test: Growth inhibition of human MCF7 cells incubated for 48 hrs by sulforhodamine B spectrophotometric assay; assay type: functional
MDA-MB-231 [6] = test: Growth inhibition of human MDA-MB-231 cells incubated for 48 hrs by sulforhodamine B spectrophotometric assay; assay type: functional
MDA-MB-468 = test: Growth inhibition of human MDA-MB-468 cells incubated for 48 hrs by sulforhodamine B spectrophotometric assay; assay type: functional
CCRF-CEM [7] = test: Growth inhibition against human CCRF-CEM cells assessed as total growth inhibitory concentration incubated for 48 hrs by sulforhodamine B spectrophotometric assay; assay type: functional
MOLT-4 [8] = test: Growth inhibition against human MOLT-4 cells assessed as total growth inhibitory concentration incubated for 48 hrs by sulforhodamine B spectrophotometric assay; assay type: functional
NCI-H322M = test: Growth inhibition against human NCI-H322M cells assessed as total growth inhibitory concentration incubated for 48 hrs by sulforhodamine B spectrophotometric assay; assay type: functional
NCI-H522 = test: Growth inhibition against human NCI-H522 cells assessed as total growth inhibitory concentration incubated for 48 hrs by sulforhodamine B spectrophotometric assay; assay type: functional
SF-295 [9] = test: Growth inhibition against human SF-295 cells assessed as total growth inhibitory concentration incubated for 48 hrs by sulforhodamine B spectrophotometric assay; assay type: functional
SNB-19 [10] = test: Growth inhibition against human SNB-19 cells assessed as total growth inhibitory concentration incubated for 48 hrs by sulforhodamine B spectrophotometric assay; assay type: functional
SK-MEL-5 [11] = test: Growth inhibition against human SK-MEL-5 cells assessed as total growth inhibitory concentration incubated for 48 hrs by sulforhodamine B spectrophotometric assay; assay type: functional
UACC-257 = test: Growth inhibition against human UACC-257 cells assessed as total growth inhibitory concentration incubated for 48 hrs by sulforhodamine B spectrophotometric assay; assay type: functional
UACC-62 = test: Growth inhibition against human UACC-62 cells assessed as total growth inhibitory concentration incubated for 48 hrs by sulforhodamine B spectrophotometric assay; assay type: functional
OVCAR-3 [12] = test: Growth inhibition against human OVCAR-3 cells assessed as total growth inhibitory concentration incubated for 48 hrs by sulforhodamine B spectrophotometric assay; assay type: functional
ACHN [13] = test: Growth inhibition against human ACHN cells assessed as total growth inhibitory concentration incubated for 48 hrs by sulforhodamine B spectrophotometric assay; assay type: functional
CAKI-1 [14] = test: Growth inhibition against human CAKI-1 cells assessed as total growth inhibitory concentration incubated for 48 hrs by sulforhodamine B spectrophotometric assay; assay type: functional
HL-60 = test: Growth inhibition against human HL-60 cells assessed as lethal concentration incubated for 48 hrs by sulforhodamine B spectrophotometric assay; assay type: functional; conditions: read-out: LC50 (the source's name)
MOLT-4 [15] = test: Growth inhibition against human MOLT-4 cells assessed as lethal concentration incubated for 48 hrs by sulforhodamine B spectrophotometric assay; assay type: functional; conditions: read-out: LC50 (the source's name)
A549 = test: Growth inhibition against human A549 cells assessed as lethal concentration incubated for 48 hrs by sulforhodamine B spectrophotometric assay; assay type: functional; conditions: read-out: LC50 (the source's name)
NCI-H226 [16] = test: Growth inhibition against human NCI-H226 cells assessed as lethal concentration incubated for 48 hrs by sulforhodamine B spectrophotometric assay; assay type: functional; conditions: read-out: LC50 (the source's name)
COLO 205 = test: Growth inhibition against human COLO 205 cells assessed as lethal concentration incubated for 48 hrs by sulforhodamine B spectrophotometric assay; assay type: functional; conditions: read-out: LC50 (the source's name)
SW-620 = test: Growth inhibition against human SW620 cells assessed as lethal concentration incubated for 48 hrs by sulforhodamine B spectrophotometric assay; assay type: functional; conditions: read-out: LC50 (the source's name)
SNB-19 [17] = test: Growth inhibition against human SNB-19 cells assessed as lethal concentration incubated for 48 hrs by sulforhodamine B spectrophotometric assay; assay type: functional; conditions: read-out: LC50 (the source's name)
U-251 = test: Growth inhibition against human U-251 cells assessed as lethal concentration incubated for 48 hrs by sulforhodamine B spectrophotometric assay; assay type: functional; conditions: read-out: LC50 (the source's name)
Malme-3M [18] = test: Growth inhibition against human Malme-3M cells assessed as lethal concentration incubated for 48 hrs by sulforhodamine B spectrophotometric assay; assay type: functional; conditions: read-out: LC50 (the source's name)
SK-MEL-5 [19] = test: Growth inhibition against human SK-MEL-5 cells assessed as lethal concentration incubated for 48 hrs by sulforhodamine B spectrophotometric assay; assay type: functional; conditions: read-out: LC50 (the source's name)
A498 = test: Growth inhibition against human A498 cells assessed as lethal concentration incubated for 48 hrs by sulforhodamine B spectrophotometric assay; assay type: functional; conditions: read-out: LC50 (the source's name)
ACHN [20] = test: Growth inhibition against human ACHN cells assessed as lethal concentration incubated for 48 hrs by sulforhodamine B spectrophotometric assay; assay type: functional; conditions: read-out: LC50 (the source's name)
CAKI-1 [21] = test: Growth inhibition against human CAKI-1 cells assessed as lethal concentration incubated for 48 hrs by sulforhodamine B spectrophotometric assay; assay type: functional; conditions: read-out: LC50 (the source's name)
CCRF-CEM [22] = test: Induction of cell cycle arrest in human CCRF-CEM cells assessed as accumulation of cells at higher G2/M phase at 4.14 uM incubated for 24 hrs by propidium iodide staining based flow cytometry analysis (reference value: 10.09 +/- 0.14%); assay type: functional
[23] = Acute toxicity in C57BL/6 mouse assessed as ratio of liver weight to body weight at 20 mg/kg,ip administration and observed after 22 days (reference value: 5.22 +/- 0.42); assay type: organism-based; conditions: in vivo, 528 h, time 22 day
KB 3-1 = test: Induction of apoptosis in human KB 3-1 cells assessed as increase in calnexin protein expression at 0.5 to 5 uM incubated for 3 hrs by Western blotting assay; assay type: functional, cell-based; conditions: dose 0.5-5 µM
Jurkat = test: Induction of apoptosis in human Jurkat cells assessed as DNA damage by DNA laddering assay; assay type: functional, cell-based
MDA-MB-231 [24] = test: Induction of apoptosis in human MDA-MB-231 cells assessed as increase in caspase-9 level at 10 uM incubated for 24 hrs by flow cytometry analysis; assay type: functional
[25] = Acute toxicity in C57BL/6 mouse assessed as decrease in body mass at 20 mg/kg,ip administration observed after 22 days; assay type: organism-based; conditions: in vivo, 528 h, time 22 day

SMILES: O=C1C2=C(C(=O)c3c(O)cccc31)C(c1ccco1)c1sc(=O)[nH]c1S2 (stereo unspecified)
- GI50 (K562): 2.84 µM
- GI50 (RPMI-8226): 2.62 µM
- GI50 (NCI-H226 [1]): 2.18 µM
- GI50 (HCC 2998): 2.5 µM
- GI50 (SF-268): 3.48 µM
- GI50 (SF-295 [2]): 1.98 µM
- GI50 (Malme-3M [3]): 0.75 µM
- GI50 (M14): 1.06 µM
- GI50 (SK-MEL-28): 1.87 µM
- GI50 (OVCAR-3 [4]): 2.86 µM
- GI50 (ACHN [5]): 4.08 µM
- GI50 (SN12C): 1.74 µM
- GI50 (MCF7): 1.39 µM
- GI50 (MDA-MB-231 [6]): 2.73 µM
- GI50 (MDA-MB-468): 2.01 µM
- TGI (CCRF-CEM [7]): > 100 µM
- TGI (MOLT-4 [8]): 9.88 µM
- TGI (NCI-H322M): 3.13 µM
- TGI (NCI-H522): 6.99 µM
- TGI (SF-295 [9]): 3.59 µM
- TGI (SNB-19 [10]): 7.33 µM
- TGI (SK-MEL-5 [11]): 3 µM
- TGI (UACC-257): 3.26 µM
- TGI (UACC-62): 3.43 µM
- TGI (OVCAR-3 [12]): 14 µM
- TGI (ACHN [13]): 16.1 µM
- TGI (CAKI-1 [14]): 13.9 µM
- CC50 (HL-60): > 100 µM
- CC50 (MOLT-4 [15]): > 100 µM
- CC50 (A549): 7.38 µM
- CC50 (NCI-H226 [16]): 27.3 µM
- CC50 (COLO 205): 6.93 µM
- CC50 (SW-620): 52.7 µM
- CC50 (SNB-19 [17]): 26.1 µM
- CC50 (U-251): 35.7 µM
- CC50 (Malme-3M [18]): 4.75 µM
- CC50 (SK-MEL-5 [19]): 5.68 µM
- CC50 (A498): 31.6 µM
- CC50 (ACHN [20]): 40.1 µM
- CC50 (CAKI-1 [21]): 37.3 µM
- Activity (CCRF-CEM [22]): 12.23%
- Ratio [23]: 4.54
- Activity (KB 3-1): inactive
- Activity (Jurkat): Active
- Activity (MDA-MB-231 [24]): 32.6%
- Activity [25]: Toxic

Source: ChEMBL document CHEMBL5360558, “Molecular design, synthesis and anticancer activity of new thiopyrano[2,3-d]thiazoles based on 5-hydroxy-1,4-naphthoquinone (juglone)” (Eur J Med Chem, 2023)
